{
  "source": "patent US20230203471A1",
  "about": "“METHOD AND PLATFORM FOR DISRUPTING INTRACELLULAR MICROTUBULES” (National Tsing Hua University, priority 2021, published 2023)",
  "molecules": {"B1": {"name": "TagRFP—FRB—A1AY1: A1AY1 (SEQ ID NO:16), targets tyrosinated MTs, tagged with FRB and red fluorescent protein TagRFP (protein)", "chain": "MVSKGEELIKENMHMKLYMEGTVNNHHFKCTSEGEGKPYEGTQTMRIKVVEGGPLPFAFDILATSFMYGSRTFINHTQGIPDFFKQSFPEGFTWERVTTYEDGGVLTATQDTSLQDGCLIYNVKIRGVNFPSNGPVMQKKTLGWEANTEMLYPADGGLEGRTDMALKLVGGGHLICNFKTTYRSKKPAKNLKMPSVYYVDHRLERIKEADKETYVEQHEVAVARYCDLPSKLGHKLNLYKILWHEMWHEGLEEASRLYFGERNVKGMFEVLEPLHAMMERGPQTLKETSFNQAYGRDLMEAQEWCRKYMKSGNVKDLLQAWDLYYHVFRRISKMATVKFKYKGEEKQVDISKILSVGRYGKLIHFLYDLGGGKAGMGMVSEKDAPKELLQMLEKQKK"}},
  "key": {"[1]": {"biological_target": "T1, spastin (Mus musculus, UniProt Q9QYY8, K308Q/K309Q/K310Q)", "T1 construct": "expressed in transfected cells; host or cells: HeLa (CCL-2)", "T1 sequence (Q9QYY8 with tags, fused parts or gaps K308Q/K309Q/K310Q)": "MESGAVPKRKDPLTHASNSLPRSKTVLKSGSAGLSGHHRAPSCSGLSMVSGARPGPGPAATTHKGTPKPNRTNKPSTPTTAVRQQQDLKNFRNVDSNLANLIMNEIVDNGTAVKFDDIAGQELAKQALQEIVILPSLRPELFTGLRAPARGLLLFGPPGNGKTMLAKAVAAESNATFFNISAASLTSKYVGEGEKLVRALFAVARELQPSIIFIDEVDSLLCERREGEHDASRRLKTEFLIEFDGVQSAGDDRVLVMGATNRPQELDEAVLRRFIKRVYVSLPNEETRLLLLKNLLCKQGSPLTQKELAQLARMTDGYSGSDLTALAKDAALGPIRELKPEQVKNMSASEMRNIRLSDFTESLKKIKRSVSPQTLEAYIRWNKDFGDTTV", "assay": "Reversal of MT disruption by spastin inhibition and MT regrowth in HeLa cells", "assay_type": "cell-based", "settings": "spastazoline 10 µM added after 28 min rapamycin; dNSpastin3Q-YFP-FKBP and EMTB-CFP-FRB HeLa cells", "method": "FIGS. 2S to 2U show inhibition of spastin activity reverses MT disruption. In FIG. 2S, HeLa cells co-transfected with EMTB—CFP—FRB (black) and dNSpastin3Q-YFP-FKBP (green) were pre-treated with rapamycin for 28 min to induce acute MT disassembly; spastazoline (10 µM), a spastin inhibitor, was then added to the cultures to halt the MT disruption system; arrows indicate the centrosome-derived MTs; scale bar, 10 µm. […] Data (red) are shown as the mean ± SD. A Student’s t-test was performed to generate the indicated p-value.\nIntriguingly, nascent MTs from the fragments derived from dNspastin3Q-mediated cleavage assembled at a polymerization rate of 0.92 ± 0.04 µm/sec, which was slightly slower than the regrowth rate of 1.17 ± 0.07 µm/sec for MTs from centrosomes (see FIG. 2U). […] In particular, microtubule filaments are composed of microtubule molecules. If they are only disassembled into microtubule molecules and the raw materials are still there, they would have the opportunity to quickly assemble them back. But if the microtubule molecules are degraded and the raw materials are gone, they can’t be quickly reassembled. In summary, rapid recruitment of dNSpastin3Q-YFP-FKBP onto MTs efficiently triggered MT disassembly in living cells upon dimerization induction."}, "[2]": {"biological_target": "TagRFP-FRB-A1AY1 (Artificial Sequence)", "assay": "live-cell imaging, addition of rapamycin"}, "[3]": {"test_system": "tyrosinated MTs in COS7 cells", "assay": "Targeting of TagRFP-FRB-A1AY1 and rapamycin-induced recruitment onto A1AY1-bound MTs", "assay_type": "cell-based, African green monkey", "method": "(§1) The procedures of immunofluorescence staining are as follows. Cells cultured in borosilicate glass Lab-Tek eight-well chambers (Nunc) were fixed in 4% paraformaldehyde (Electron Microscopy Sciences) at room temperature for 15 min. Fixed cells were permeabilized with 0.1% Triton X-100 and then incubated in blocking solution (phosphate-buffered saline with 2% bovine serum albumin) for 30 min at room temperature. To label cytosolic MTs, primary ciliary membrane, and axonemal MTs, cells were incubated for 1 hr at room temperature with mouse antibody against α-tubulin (1:500; Sigma Aldrich, T6199), rabbit antibody against Arl13b (1:500; Proteintech, 17711-1-AP), mouse antibody against glutamylated tubulin (1:100; Adipogen, AG-20B-0020-C100), mouse antibody against acetylated tubulin (1:500; Sigma Aldrich, T7451), rat antibody against tyrosinated tubulin (1:100; Sigma Aldrich, MAB1864), and mouse antibody against detyrosinated tubulin (1:100; MERCK, AB3201) each of which was diluted in blocking solution. Cells were then washed with PBS and incubated for 1 hr with appropriate secondary antibodies (1:1000 dilution; Thermo Fisher) at room temperature.\nMTs undergo various post-translational modification (PTMs) for spatiotemporally regulating their properties and functions. The inventors next turned efforts to precisely disrupt MTs with specific PTMs. […]"}, "[4]": {"test_system": "EMTB-CFP-FRB-labeled MTs in HeLa cells", "assay": "Rapamycin-induced translocation of FKBP-tagged proteins onto EMTB-CFP-FRB-labeled MTs (FRET, live-cell imaging)", "assay_type": "cell-based", "settings": "100 nM rapamycin, FRET signal", "method": "(§2) The procedures of live-cell imaging are as follows. Live transfected cells cultured on poly(d-lysine)-coated glass coverslips (Hecht Assistent) were treated with either 100 nM rapamycin for rapid induction of protein dimerization and translocation or MT-targeting agents (10 µM nocodazole or 500 µM colchicine) during imaging. Live-cell imaging was conducted on a Nikon T1 inverted fluorescence microscope (Nikon) with a 60× oil objective (Nikon), a Prime camera (Photometrics), and 37° C., 5% CO2 heat stage (Live Cell Instrument). Rapid recruitment of proteins of interest (POIs) was imaged at 5- or 10-sec intervals, whereas the process of MT disruption was imaged at 1-min intervals. Images were obtained using Nikon NIS-Elements AR software and processed with Huygens Deconvolution Software (Scientific Volume Imaging). Image analysis was mainly performed with Nikon NIS-Elements AR software.\nFIGS. 1B and 1C show the MT-binding domain of ensconsin-cyan fluorescent protein-FKBP-rapamycin binding domain (EMTB—CFP—FRB) localizes to cytosolic MTs. […] Scale bar, 10 µm. […] Subsequently, the addition of rapamycin to HeLa cells led to the rapid translocation of yellow fluorescent protein-tagged FKBP (YFP—FKBP) onto EMTB—CFP—FRB-labeled MTs as evidenced by an increased FRET (fluorescence resonance energy transfer) signal on MTs (T½ of translocation: 5.73 ± 0.54 sec; FIGS. 1D and 1E). […]"}, "[5]": {"test_system": "cytosolic MTs in HeLa cells", "assay": "Immunofluorescence staining of α-tubulin in HeLa cells expressing spastin constructs", "assay_type": "cell-based", "settings": "HeLa cells co-transfected with EMTB-CFP-FRB", "method": "as §1\nSpastin is a MT-cleaving enzyme that is ubiquitous in nearly all eukaryotic cells. Expression of full-length spastin (SpastinFL-YFP; the amino acid sequence of spastin is SEQ ID NO: 1) and truncated spastin without the N-terminal 1-140 amino acids (dNSpastin-YFP) in HeLa cells removed significant amounts of cytosolic MTs, 47.45% and 42.86%, respectively, relative to YFP-transfected control cells (See FIGS. 2A to 2C). This means that both full-length spastin and truncated spastin without N-terminal 1-140 amino acids have the effect on disrupting microtubules. FIGS. 2A to 2C show the microtubule cleavage activity of artificially engineered spastin enzyme. […] The dotted line on the right indicates the periphery of the cell that expresses spastin. […] SpastinFL expressed in cells can disrupt the intracellular microtubules. Making SpastinFL be located in the cytosol, truncated spastin would also disrupt the intracellular microtubules, so it would also be located in the cytosol. […] The truncated spastin is used in the subsequent experiments. […] Compared with the YFP control group, both SpastinFL-YFP and dNSpastrin-YFP can disrupt about 40% of the microtubules. Thus the N-terminal fragment (1-140 amino acids) was dispensable for Spastin-mediated MT severing. […]"}, "[6]": {"test_system": "intracellular microtubules in HeLa cells", "assay": "Live-cell imaging of MT disruption (MT filament area) in transfected HeLa cells", "assay_type": "cell-based", "settings": "HeLa cells co-transfected with EMTB-CFP-FRB, upon rapamycin (100 nM) treatment", "method": "as §2\nThe procedures of measurement of MT filament area are as follows. The MT filaments in living cells were labeled with EMTB-CFP-FRB and imaged in real time (RAW image). The rolling ball correction was used to remove the cytosol background from the RAW images, which was carried out with the Nikon NIS-Elements AR software. Images were processed to generate the binary MT filament pattern via the Otsu threshold and analyzed by Fiji software.\nFIGS. 2D and 2E show rapidly recruiting engineered spastins onto MTs. […] The top three layers are cells that simultaneously express EMTB-CFP-FRB and dNSpastin3Q-YFP-FKBP. The lower three layers are cells that simultaneously express EMTB-CFP-FRB and dNSpastin-YFP-FKBP-C2Lact. The color bar on the right indicates the brightness value represented by the color of the FRET signal. […] Data are shown as the mean ± S.E.M. It was noteworthy that MT disruption triggered by dNSpastin3Q-YFP-FKBP upon rapamycin treatment (T½ = 11.05 ± 1.52 min) was much faster than that of dNSpastin-YFP-FKBP-C2Lact upon rapamycin treatment (T½ = 53.08 ± 8.08 min), and treatment of two common MTAs, nocodazole (10 µM; T½ = 54.02 ± 10.29 min), colchicine (500 µM; T½ = 94.28 ± 8.63 min; see FIGS. 2F to 2J). […] In FIG. 2H, HeLa cells transfected with the indicated constructs were treated with nocodazole (Noc)([…], a type of MTA), colchicine (Col)(500 µM, a type of MTA), or rapamycin (Rapa)(100 nM); scale bar, 10 µm. […] Data are shown as the mean ± S.E.M. Student’s t-tests were performed, with the resulting p-values indicated."}},
  "data": [
    {"molecule": "CC(C)[C@@H]1CN(c2nc(Nc3cc(C(C)(C)C)[nH]n3)c3cc[nH]c3n2)CCN1", "note": "[spastazoline, reference compound]", "values": [
      {"measurement": "effect of spastin inhibitor on rapamycin-mediated MT disruption", "setting": "[1]", "value": "swiftly reversed rapamycin-mediated acute MT disruption"}
    ]},
    {"molecule": "TagCFP, tagged FKBP (TagCFP-FKBP)", "values": [
      {"measurement": "T½ of recruitment", "setting": "[2]", "value": 1.08, "unit": "min"}
    ]},
    {"molecule": "TagCFP—FKBP: cyan fluorescent protein TagCFP-tagged FKBP [reference compound]", "values": [
      {"measurement": "T½ of recruitment onto TagRFP-FRB-A1AY1-bound MTs", "setting": "[3]; addition of rapamycin", "value": "1.078 ± 0.268", "unit": "min"}
    ]},
    {"molecule": "YFP—FKBP: yellow fluorescent protein-tagged FK506-binding protein [reference compound]", "values": [
      {"measurement": "T½ of translocation from cytosol onto EMTB-CFP-FRB-labeled MTs", "setting": "[4]", "value": "0.0955 ± 0.009", "unit": "min"}
    ]},
    {"molecule": "dNSpastin-YFP-FKBP-C2Lact: truncated spastin tagged with YFP-FKBP and plasma membrane-binding sequence C2Lact", "values": [
      {"measurement": "T½ of translocation from cytosol onto EMTB-CFP-FRB-labeled MTs", "setting": "[4]", "value": "0.924 ± 0.14", "unit": "min"},
      {"measurement": "MT disruption after rapamycin treatment", "setting": "[5]; 100 nM rapamycin 1 hr", "value": "robustly disrupted MTs"},
      {"measurement": "MT-severing activity before rapamycin treatment", "setting": "[5]; 0.1% DMSO", "value": "low MT-severing activities"},
      {"measurement": "T½ of MT disruption", "setting": "[6]", "value": "53.08 ± 8.08", "unit": "min"}
    ]},
    {"molecule": "B1", "values": [
      {"measurement": "targeting of construct to MT subtypes", "setting": "[3]; COS7 cells, immunostaining", "value": "preferentially targeted to generic MTs and tyrosinated MTs but not to detyrosinated MTs"}
    ]}
  ]
}
